From patent publication US20210355104A1, “ADENOSINE RECEPTOR BINDING COMPOUNDS” (Nikang Therapeuticsm Inc., priority 2018, published 2021)
Values joined by “and” are separate entries in the source; they are usually repeats but may differ in a detail not shown here. Equal values may be shown once.

target: Adenosine A2A receptor (Homo sapiens, UniProt P29274); experiment: cAMP assay in 293A cells stably expressing the adenosine A2A receptor (CGS21680 stimulation, HTRF); assay type: cell-based; set-up: expressed in transfected cells; host or cells: 293A cells (Invitrogen, Cat# R705-07) infected with A2A-expressing lentivirus (custom packaged by Biosettia), puromycin selected; conditions: 293A-A2AR cells, 0.1% BSA, 8 nM CGS; values separated by / are repeat determinations; read-out: cAMP (nM) 0.1% BSA, 8 nM CGS
Protocol: A 293A cell line (Invitrogen, Cat# R705-07) stably expressing the adenosine A2A receptor was generated in house. Briefly, 293A cells were seeded in 6-well plate and infected with A2A expressing lentivirus (custom packaged by Biosettia) and selected with puromycin (1 ug/ml). Cells survived selection were confirmed for A2A expression by RT-qPCR (RT Reagent: High-Capacity cDNA Reverse Transcription Kit, Applied Biosystems/Thermo Fisher Cat# 4368814, qPCR reagent: SYBR™ Green Master Mix, Applied Biosystems/Thermo Fisher Cat# 4309155). The cells were maintained in DMEM/F12 medium containing 10% FBS, 100 units/ml Penicillin, 100 μg/ml Streptomycin, and 1 μg/ml puromycin at 37° C., 5% CO2. 293A-A2AR cells were harvested on the day of assay and resuspended at 0.6 million cells/ml in DMEM/F12 with 0.1% BSA and 30 U/ml denosine deaminase(Roche, Cat #: 10102121001). Serial dilutions of compounds were prepared in DMEM/F12 with 0.1% BSA to a DMSO concentration of 0.6%. After 4 μl of compound dilutions were added, 4 μl suspended cells were dispensed into low-volume white 384-well plates (Greiner Bio-One). […] The assay plate was then incubated at room temperature for 30 min. 3 μl of d2 conjugated cAMP and 3 μl cryptate conjugated anti-cAMP antibody were then added. D2 conjugated cAMP and cryptate conjugated anti-cAMP antibody (Cisbio, Cat #: 62AM6PEC) were both prepared in cell lysis buffer according to the manufacturer's instruction. After 1 h incubation at room temperature, plates were read in CIARIOstar plate reader (BMG Labtech) using the HTRF detection mode.

Adenosine A2A receptor, sequence (P29274 whole entry): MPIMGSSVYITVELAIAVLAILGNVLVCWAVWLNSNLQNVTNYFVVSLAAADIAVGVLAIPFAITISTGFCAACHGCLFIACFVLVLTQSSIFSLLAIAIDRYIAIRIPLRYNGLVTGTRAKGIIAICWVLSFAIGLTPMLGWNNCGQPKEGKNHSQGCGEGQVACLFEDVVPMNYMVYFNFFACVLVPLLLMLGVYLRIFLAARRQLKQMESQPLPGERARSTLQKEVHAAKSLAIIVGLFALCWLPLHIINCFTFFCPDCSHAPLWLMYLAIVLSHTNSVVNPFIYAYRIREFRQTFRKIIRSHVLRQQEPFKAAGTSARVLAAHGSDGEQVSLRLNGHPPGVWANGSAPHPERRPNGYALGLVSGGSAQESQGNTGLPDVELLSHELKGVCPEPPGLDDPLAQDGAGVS

IC50 | SMILES
5.7 nM and 14 nM | CC(=O)Nc1ccc(CCOc2nc(N)nc(-c3ccccc3)c2-c2cc(C)nc(C(F)(F)F)c2)cc1 [Example 9, N-(4-(2-((2-amino-5-(2-methyl-6-(trifluoromethyl)pyridin-4-yl)-6-phenylpyrimidin-4-yl)oxy)ethyl)phenyl)acetamide]
0.9 nM and 1.2 nM | Cc1cc(-c2c(OCCN(C)c3ncccn3)nc(N)nc2-c2ccc(F)cc2)cc(C(F)F)n1 [Example 145, 5-(2-(difluoromethyl)-6-methylpyridin-4-yl)-4-(4-fluorophenyl)-6-(2-(methyl(pyrimidin-2-yl)amino)ethoxy)pyrimidin-2-amine]

same assay, conditions: 293A-A2AR cells, 0.1% BSA, 1 uM CGS; read-out: cAMP (nM) 0.1% BSA, 1 uM CGS

SMILES | IC50
Cc1cc(-c2c(OCCOC(C)(C)C(=O)O)nc(N)nc2-c2ccc(F)cc2)cc(C(F)F)n1 [Example 226] | > 2500 nM
CCc1nn(CC(=O)O)nc1COc1nc(N)nc(-c2ccc(F)cc2)c1-c1cc(C)nc(C(F)F)c1 [Example 231, 2-(4-(((2-amino-5-(2-(difluoromethyl)-6-methylpyridin-4-yl)-6-(4-fluorophenyl)pyrimidin-4-yl)oxy)methyl)-5-ethyl-2H-1,2,3-triazol-2-yl)acetic acid] | > 25000 nM
CCc1nnn(CC(=O)O)c1COc1nc(N)nc(-c2ccc(F)cc2)c1-c1cc(C)nc(C(F)F)c1 [Example 233, 2-(5-(((2-amino-5-(2-(difluoromethyl)-6-methylpyridin-4-yl)-6-(4-fluorophenyl)pyrimidin-4-yl)oxy)methyl)-4-ethyl-1H-1,2,3-triazol-1-yl)acetic acid] | 16300 nM
Cc1cc(-c2c(OCc3nccn3CC(C)(C)O)nc(N)nc2-c2cccc(C#N)c2C)cc(C(F)F)n1 [Example 236, 3-(2-amino-5-(2-(difluoromethyl)-6-methylpyridin-4-yl)-6-((1-(2-hydroxy-2-methylpropyl)-1H-imidazol-2-yl)methoxy)pyrimidin-4-yl)-2-methylbenzonitrile] | > 25000 nM
Cc1cc(-c2c(OCc3ccncn3)nc(N)nc2-c2cccc(C#N)c2C)cc(C(F)F)n1 [Example 240, 3-(2-amino-5-(2-(difluoromethyl)-6-methylpyridin-4-yl)-6-(pyrimidin-4-ylmethoxy)pyrimidin-4-yl)-2-methylbenzonitrile] | 17000 nM
Cc1cc(-c2c(OCCN(C)c3cccc(OCC(=O)O)n3)nc(N)nc2-c2ccc(F)cc2)cc(C(F)F)n1 [Example 248, 2-((6-((2-((2-amino-5-(2-(difluoromethyl)-6-methylpyridin-4-yl)-6-(4-fluorophenyl)pyrimidin-4-yl)oxy)ethyl)(methyl)amino)pyridin-2-yl)oxy)acetic acid] | 552 nM and 742 nM and 1100 nM
Cc1cc(-c2c(OCCC(C)(C)C(=O)O)nc(N)nc2-c2cccc(C#N)c2C)cc(C(F)F)n1 [Example 250, 4-((2-amino-6-(3-cyano-2-methylphenyl)-5-(2-(difluoromethyl)-6-methylpyridin-4-yl)pyrimidin-4-yl)oxy)-2,2-dimethylbutanoic acid] | 8570 nM
CCc1nn(CC)nc1COc1nc(N)nc(-c2cccc(C#N)c2C)c1-c1cc(C)nc(C(F)F)c1 [Example 254, 3-(2-amino-6-((2,5-diethyl-2H-1,2,3-triazol-4-yl)methoxy)-5-(2-(difluoromethyl)-6-methylpyridin-4-yl)pyrimidin-4-yl)-2-methylbenzonitrile] | 23500 nM

The next lines start with the values.

IC50 | SMILES
7920 nM | CCn1cnc(COc2nc(N)nc(-c3cccc(C#N)c3C)c2-c2cc(C)nc(C(F)F)c2)n1 [Example 239, 3-(2-amino-5-(2-(difluoromethyl)-6-methylpyridin-4-yl)-6-((1-ethyl-1H-1,2,4-triazol-3-yl)methoxy)pyrimidin-4-yl)-2-methylbenzonitrile]
7240 nM | Cc1cc(-c2c(OCc3nccn3CC(=O)O)nc(N)nc2-c2ccc(F)cc2)cc(C(F)F)n1 [Example 249, 2-(2-(((2-amino-5-(2-(difluoromethyl)-6-methylpyridin-4-yl)-6-(4-fluorophenyl)pyrimidin-4-yl)oxy)methyl)-1H-imidazol-1-yl)acetic acid]
4510 nM | CCc1c(COc2nc(N)nc(-c3ccc(F)cc3)c2-c2cc(C)nc(C(F)F)c2)nnn1CC(=O)O [Example 232, 2-(4-(((2-amino-5-(2-(difluoromethyl)-6-methylpyridin-4-yl)-6-(4-fluorophenyl)pyrimidin-4-yl)oxy)methyl)-5-ethyl-1H-1,2,3-triazol-1-yl)acetic acid]
3710 nM | CCN1C(=O)OCC1COc1nc(N)nc(-c2ccc(F)cc2)c1-c1cc(C)nc(C(F)F)c1 (stereo not drawn) [Example 235, 4-(((2-amino-5-(2-(difluoromethyl)-6-methylpyridin-4-yl)-6-(4-fluorophenyl)pyrimidin-4-yl)oxy)methyl)-3-ethyloxazolidin-2-one]
2950 nM | CCn1nccc1COc1nc(N)nc(-c2cccc(C#N)c2C)c1-c1cc(C)nc(C(F)F)c1 [Example 243, 3-(2-amino-5-(2-(difluoromethyl)-6-methylpyridin-4-yl)-6-((1-ethyl-1H-pyrazol-5-yl)methoxy)pyrimidin-4-yl)-2-methylbenzonitrile]
2150 nM | CCc1nnn(CC(C)(C)O)c1COc1nc(N)nc(-c2ccc(F)cc2)c1-c1cc(C)nc(C(F)F)c1 [Example 253, 1-(5-(((2-amino-5-(2-(difluoromethyl)-6-methylpyridin-4-yl)-6-(4-fluorophenyl)pyrimidin-4-yl)oxy)methyl)-4-ethyl-1H-1,2,3-triazol-1-yl)-2-methylpropan-2-ol]
2120 nM | CCn1nnc(COc2nc(N)nc(-c3cccc(C#N)c3C)c2-c2cc(C)nc(C(F)F)c2)n1 [Example 237, 3-(2-amino-5-(2-(difluoromethyl)-6-methylpyridin-4-yl)-6-((2-ethyl-2H-tetrazol-5-yl)methoxy)pyrimidin-4-yl)-2-methylbenzonitrile]
2020 nM | Cc1cc(-c2c(OCc3nnn(CC(C)(C)O)n3)nc(N)nc2-c2ccc(F)cc2)cc(C(F)F)n1 [Example 242, 1-(5-(((2-amino-5-(2-(difluoromethyl)-6-methylpyridin-4-yl)-6-(4-fluorophenyl)pyrimidin-4-yl)oxy)methyl)-2H-tetrazol-2-yl)-2-methylpropan-2-ol]
1280 nM | CCc1nn(CC(C)(C)O)nc1COc1nc(N)nc(-c2ccc(F)cc2)c1-c1cc(C)nc(C(F)F)c1 [Example 251, 1-(4-(((2-amino-5-(2-(difluoromethyl)-6-methylpyridin-4-yl)-6-(4-fluorophenyl)pyrimidin-4-yl)oxy)methyl)-5-ethyl-2H-1,2,3-triazol-2-yl)-2-methylpropan-2-ol]
1260 nM | CCc1c(COc2nc(N)nc(-c3ccc(F)cc3)c2-c2cc(C)nc(C(F)F)c2)nnn1CC(C)(C)O [Example 252, 1-(4-(((2-ainino-5-(2-(difluoromethyl)-6-methylpyridin-4-yl)-6-(4-fluorophenyl)pyrimidin-4-yl)oxy)methyl)-5-ethyl-1H-1,2,3-triazol-1-yl)-2-methylpropan-2-ol]
981 nM | Cc1cc(-c2c(OCCN(C)c3cccnn3)nc(N)nc2-c2cccc(C#N)c2C)cc(C(F)F)n1 [Example 246, 3-(2-amino-5-(2-(difluoromethyl)-6-methylpyridin-4-yl)-6-(2-(methyl(pyridazin-3-yl)amino)ethoxy)pyrimidin-4-yl)-2-methylbenzonitrile]
756 nM | CCn1ccc(COc2nc(N)nc(-c3cccc(C#N)c3C)c2-c2cc(C)nc(C(F)F)c2)n1 [Example 244, 3-(2-amino-5-(2-(difluoromethyl)-6-methylpyridin-4-yl)-6-((1-ethyl-1H-pyrazol-3-yl)methoxy)pyrimidin-4-yl)-2-methylbenzonitrile]
647 nM | Cc1cc(-c2c(OCc3nncn3CC3CC3)nc(N)nc2-c2ccc(F)cc2)cc(C(F)F)n1 [Example 234]
265 nM | Cc1cc(-c2c(OCCCCO)nc(N)nc2-c2ccc(F)cc2)cc(C(F)F)n1 [Example 245, 4-((2-amino-5-(2-(difluoromethyl)-6-methylpyridin-4-yl)-6-(4-fluorophenyl)pyrimidin-4-yl)oxy)butan-1-ol]
107 nM | Cc1cc(-c2c(OCc3ccnn3CC3CC3)nc(N)nc2-c2ccc(F)cc2)cc(C(F)F)n1 [Example 229, 4-((1-(cyclopropylmethyl)-1H-pyrazol-5-yl)methoxy)-5-(2-(difluoromethyl)-6-methylpyridin-4-yl)-6-(4-fluorophenyl)pyrimidin-2-amine]

same assay, conditions: 293A-A2AR cells, 0.1% BSA, 1 uM CGS; values separated by / are repeat determinations; read-out: cAMP (nM) 0.1% BSA, 1 uM CGS

IC50 | SMILES
123 nM | Cc1cc(-c2c(OCCN(C)c3ncccn3)nc(N)nc2-c2ccc(F)cc2)cc(C(F)F)n1 [Example 145, 5-(2-(difluoromethyl)-6-methylpyridin-4-yl)-4-(4-fluorophenyl)-6-(2-(methyl(pyrimidin-2-yl)amino)ethoxy)pyrimidin-2-amine]
> 25000 nM | Cc1cc(-c2c(OCCN(C)c3ccncn3)nc(N)nc2-c2ccc(F)cc2)cc(C(F)F)n1 [Example 151, 5-(2-(difluoromethyl)-6-methylpyridin-4-yl)-4-(4-fluorophenyl)-6-(2-(methyl(pyrimidin-4-yl)amino)ethoxy)pyrimidin-2-amine]
